Test results taken from US9724347B2, “1-pyrazolyl-3-(4-((2-anilinopyrimidin-4-yl)oxy)napththalen-1-yl) ureas as P38 MAP knase inhibitors” (Respivert Ltd., priority 2011, dated 2017).
Marks after values point to notes of the source that are not given here.

What was measured:
[1] = biological target: p38MAPKγ (MAPK12) (Homo sapiens (Human), UniProt P53778); assay: p38 MAPKγ enzyme inhibition (FRET, Z-LYTE); type: biochemical
Procedure, shortened: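 Z-LYTE FRET kinase format on donor/acceptor-labeled synthetic peptide; protease development 1 hr cleaves only non-phosphorylated peptide. Phosphorylation derived from coumarin/fluorescein emission ratio, low ratio indicating high phosphorylation.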

[2] = system: PBMC cells; assay: Cell mitosis assay; type: cell-based, human
Protocol: Peripheral blood mononucleocytes (PBMCs) from healthy subjects were separated from whole blood (Quintiles, London, UK) using a density gradient (Histopaque®-1077, Sigma-Aldrich, Poole, UK). The PBMCs (3 million cells per sample) were subsequently treated with 2% PHA (Sigma-Aldrich, Poole, UK) for 48 hr, followed by a 20 hr exposure to varying concentrations of test compounds. At 2 hr before collection, PBMCs were treated with demecolcine (0.1 μg/mL; Invitrogen, Paisley, UK,) to arrest cells in metaphase. To observe mitotic cells, PBMCs were permeabilised and fixed by adding Intraprep (50 μL; Beckman Coulter, France), and stained with anti-phospho-histone 3 ([…]; #9701; Cell Signalling, Danvers, Mass.) and propidium iodide (1 mg/mL; Sigma-Aldrich, Poole, UK,) as previously described (Muehlbauer P. A. and Schuler M. J., Mutation Research, 2003, 537:117-130). Fluorescence was observed using an ATTUNE flow cytometer (Invitrogen, Paisley, UK), gating for lymphocytes.

[3] = system: d-U937 cells; assay: Cell viability: MTT assay; type: cell-based, human; conditions: 1 μg/mL
Procedure, shortened: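 Differentiated U937 cells exposed to compound at 1 or 10 μg/mL final, either 4 h in 5% FCS RPMI1640 or 24 h in 10% FCS RPMI1640. After medium replacement, MTT added 1 h, formazan dissolved in DMSO, A550 read. % viability loss vs 0.5% DMSO vehicle; apparent viability gain shown as negative %.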

[4] = biological target: p38 MAPKα isoform (MAPK14) (Homo sapiens (Human), UniProt Q16539); assay: p38 MAPKα enzyme inhibition (FRET, Z-LYTE); type: biochemical
Chain of p38 MAPKα isoform (MAPK14) (Q16539 whole entry, canonical isoform): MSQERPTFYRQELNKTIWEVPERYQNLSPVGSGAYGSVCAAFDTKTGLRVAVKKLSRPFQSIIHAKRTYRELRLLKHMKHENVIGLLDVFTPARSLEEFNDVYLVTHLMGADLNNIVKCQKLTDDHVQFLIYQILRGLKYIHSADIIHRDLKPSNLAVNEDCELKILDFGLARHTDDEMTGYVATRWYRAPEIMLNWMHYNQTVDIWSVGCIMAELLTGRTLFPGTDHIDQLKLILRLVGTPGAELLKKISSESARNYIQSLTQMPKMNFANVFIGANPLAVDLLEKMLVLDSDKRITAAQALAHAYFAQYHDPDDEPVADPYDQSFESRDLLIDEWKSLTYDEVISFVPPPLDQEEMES

[5] = system: ICAM-1 expression in BEAS2B cells; assay: Poly I:C-induced ICAM-1 expression in BEAS2B cells; type: cell-based, human; conditions: Homo sapiens, BEAS-2B, read-out: PolyIC/ICAM1 IC50 (BEAS2B)
Procedure, shortened: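 BEAS2B human bronchial epithelial cells pre-incubated 2 h with compound, then transfected with 1 μg/mL poly I:C plus Oligofectamine. After 18 h, surface ICAM-1 measured by cell-based ELISA (OD450–655), normalised to crystal violet cell count (OD595). Inhibition calculated against vehicle control.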

[6] = biological target: GSK 3α enzyme isoform (Homo sapiens (Human), UniProt P49840); assay: GSK 3α enzyme inhibition (FRET, Z-LYTE); type: biochemical; conditions: read-out: IC50 Values for Enzyme Inhibition GSK3α
Chain of GSK 3α enzyme isoform (P49840 whole entry, canonical isoform): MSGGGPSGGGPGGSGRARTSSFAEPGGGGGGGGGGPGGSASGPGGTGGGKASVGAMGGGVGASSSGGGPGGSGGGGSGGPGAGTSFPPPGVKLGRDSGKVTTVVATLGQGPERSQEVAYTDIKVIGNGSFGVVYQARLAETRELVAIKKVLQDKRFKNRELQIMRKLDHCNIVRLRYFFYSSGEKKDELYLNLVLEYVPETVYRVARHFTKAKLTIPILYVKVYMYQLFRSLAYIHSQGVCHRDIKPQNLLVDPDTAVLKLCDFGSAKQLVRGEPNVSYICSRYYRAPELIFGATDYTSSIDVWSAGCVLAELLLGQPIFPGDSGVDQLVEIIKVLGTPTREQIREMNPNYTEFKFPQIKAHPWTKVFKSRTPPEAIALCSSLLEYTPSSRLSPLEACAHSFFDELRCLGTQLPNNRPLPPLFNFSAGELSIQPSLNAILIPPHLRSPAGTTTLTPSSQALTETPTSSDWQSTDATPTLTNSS
Procedure, shortened: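 Human GSK3α (500 ng/mL stock) was preincubated 2 h at RT with compound (stocks 4, 0.4, 0.04 or 0.004 μg/mL), then given FRET peptide (8 μM stock) and ATP (40 μM stock) for 1 h. After 1 h protease development, the coumarin/fluorescein emission ratio gave phosphorylation level.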

[7] = system: HRV16; assay: HRV16 induced CPE in MRC5 cells; type: cell-based, human rhinovirus; conditions: tested at 0.0008 μg/mL, low cell viability at 0.04 μg/mL
Protocol: The supernatants were aspirated, and then fresh media added followed by incubation for 4 days. Where appropriate, cells were pre-incubated with compound or DMSO for 2 hr, and the compounds and DMSO added again after washout of the virus.
The percentage inhibition for each well was calculated. The IC50 value was calculated from the concentration-response curve generated by the serial dilutions of the test compounds.

Chain of p38MAPKγ (MAPK12) (P53778 whole entry): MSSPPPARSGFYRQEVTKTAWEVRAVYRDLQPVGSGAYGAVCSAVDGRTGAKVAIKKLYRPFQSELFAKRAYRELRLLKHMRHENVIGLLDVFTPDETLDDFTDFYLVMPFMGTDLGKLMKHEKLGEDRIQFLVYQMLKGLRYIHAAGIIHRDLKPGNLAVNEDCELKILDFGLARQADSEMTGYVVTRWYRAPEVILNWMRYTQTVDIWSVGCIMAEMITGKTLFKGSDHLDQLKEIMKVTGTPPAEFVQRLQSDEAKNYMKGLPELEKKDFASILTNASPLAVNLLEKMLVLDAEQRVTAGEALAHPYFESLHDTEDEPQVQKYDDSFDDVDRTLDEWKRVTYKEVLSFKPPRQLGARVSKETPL

Row | Compound | IC50 [1] [nM] | Mitosis Assay % inhibition in PBMC Cells ([2]; 5 μg/mL) [%] | MTT Assay Cell viability at time point in d-U937 Cells ([3]; 4 h) | MTT Assay Cell viability at time point in d-U937 Cells ([3]; 24 h) | IC50 [4] [nM] | IC50 [5] [nM] | IC50 [6] [nM] | Mitosis Assay % inhibition in PBMC Cells ([2]; 1 μg/mL) [%] | HRV CPE (MRC5) % inhibition [7] [%*]
1 | Cc1ccc(-n2nc(C(C)(C)C)cc2NC(=O)Nc2ccc(Oc3ccnc(Nc4cccc(O)c4)n3)c3ccccc23)cc1 [Example 2, 1-(3-(tert-Butyl)-1-(p-tolyl)-1H-pyrazol-5-yl)-3-(4-((2-((3-hydroxyphenyl)amino)pyrimidin-4-yl)oxy)naphthalen-1-yl)urea] | 557 | 70.6 | −ve (−ve and +ve indicate the value is below and above respectively, the no significant effect threshold defined as 30% inhibition at 1 μg/mL at the time point indicated) | −ve (−ve and +ve indicate the value is below and above respectively, the no significant effect threshold defined as 30% inhibition at 1 μg/mL at the time point indicated) |  |  |  |  | 
2 | COc1ccc(-n2nc(C(C)(C)C)cc2NC(=O)Nc2ccc(Oc3ccnc(Nc4ccccc4)n3)c3ccccc23)cc1 [Example 7, 1-(3-(tert-butyl)-1-(4-methoxyphenyl)-1H-pyrazol-5-yl)-3-(4-((2-(phenylamino)pyrimidin-4-yl)oxy)naphthalen-1-yl)urea] | 1700 | 10.2 | −ve (−ve and +ve indicate the value is below and above respectively, the no significant effect threshold defined as 30% inhibition at 1 μg/mL at the time point indicated) | −ve (−ve and +ve indicate the value is below and above respectively, the no significant effect threshold defined as 30% inhibition at 1 μg/mL at the time point indicated) | 170 | 23 | 3500 |  | 
3 | COc1ccc(Nc2nccc(Oc3ccc(NC(=O)Nc4cc(C(C)(C)C)nn4-c4ccc(C)cc4)c4ccccc34)n2)c(OC)c1 [Example 8, 1-(3-(tert-butyl)-1-(p-tolyl)-1H-pyrazol-5-yl)-3-(4-((2-((2,4-dimethoxyphenyl)amino)pyrimidin-4-yl)oxy)naphthalen-1-yl)urea] | > 15500 |  | −ve (−ve and +ve indicate the value is below and above respectively, the no significant effect threshold defined as 30% inhibition at 1 μg/mL at the time point indicated) | −ve (−ve and +ve indicate the value is below and above respectively, the no significant effect threshold defined as 30% inhibition at 1 μg/mL at the time point indicated) | 151 | 22 | > 15500 | 15.6 | 
4 | Cc1ccc(-n2nc(C(C)(C)C)cc2NC(=O)Nc2ccc(Oc3ccnc(Nc4ccc(O)cc4)n3)c3ccccc23)cc1 [Example 9, 1-(3-(tert-butyl)-1-(p-tolyl)-1H-pyrazol-5-yl)-3-(4-((2-((4-hydroxyphenyl)amino)pyrimidin-4-yl)oxy)naphthalen-1-yl)urea] | 760 | 50.3 | −ve (−ve and +ve indicate the value is below and above respectively, the no significant effect threshold defined as 30% inhibition at 1 μg/mL at the time point indicated) | −ve (−ve and +ve indicate the value is below and above respectively, the no significant effect threshold defined as 30% inhibition at 1 μg/mL at the time point indicated) | 171 |  | 3260 |  | 
5 | CCOc1ccc(Nc2nccc(Oc3ccc(NC(=O)Nc4cc(C(C)(C)C)nn4-c4ccc(C)cc4)c4ccccc34)n2)cc1 [Example 22, 1-(3-(tert-butyl)-1-(p-tolyl)-1H-pyrazol-5-yl)-3-(4-((2-((4-ethoxyphenyl)amino)pyrimidin-4-yl)oxy)naphthalen-1-yl)urea] | > 1590 | 70.8 | −ve (−ve and +ve indicate the value is below and above respectively, the no significant effect threshold defined as 30% inhibition at 1 μg/mL at the time point indicated) | −ve (−ve and +ve indicate the value is below and above respectively, the no significant effect threshold defined as 30% inhibition at 1 μg/mL at the time point indicated) | 281 | 13 | > 1590 |  | 
6 | COc1cc(Nc2nccc(Oc3ccc(NC(=O)Nc4cc(C(C)(C)C)nn4-c4ccc(C)cc4)c4ccccc34)n2)ccc1O [Example 25, 1-(3-(tert-butyl)-1-(p-tolyl)-1H-pyrazol-5-yl)-3-(4-((2-((4-hydroxy-3-methoxyphenyl)amino)pyrimidin-4-yl)oxy)naphthalen-1-yl)urea] | 281 | 63.5 | −ve (−ve and +ve indicate the value is below and above respectively, the no significant effect threshold defined as 30% inhibition at 1 μg/mL at the time point indicated) | −ve (−ve and +ve indicate the value is below and above respectively, the no significant effect threshold defined as 30% inhibition at 1 μg/mL at the time point indicated) | 77 | 2.5 | > 1590 | 29.1 | 33
7 | COc1ccc(Nc2nccc(Oc3ccc(NC(=O)Nc4cc(C(C)(C)C)nn4-c4ccc(C)cc4)c4ccccc34)n2)cc1OC [Example 27, 1-(3-(tert-butyl)-1-(p-tolyl)-1H-pyrazol-5-yl)-3-(4-((2-((3,4-dimethoxyphenyl)amino)pyrimidin-4-yl)oxy)naphthalen-1-yl)urea] | 535 | 11.2 | +ve (−ve and +ve indicate the value is below and above respectively, the no significant effect threshold defined as 30% inhibition at 1 μg/mL at the time point indicated) | −ve (−ve and +ve indicate the value is below and above respectively, the no significant effect threshold defined as 30% inhibition at 1 μg/mL at the time point indicated) | 105 | 1.6 | 2110 |  | 
8 | Cc1ccc(-n2nc(C(C)(C)C)cc2NC(=O)Nc2ccc(Oc3ccnc(Nc4ccc(O)cc4O)n3)c3ccccc23)cc1 [Example 32, 1-(3-(tert-butyl)-1-(p-tolyl)-1H-pyrazol-5-yl)-3-(4-((2-((2,4-dihydroxyphenyl)amino)pyrimidin-4-yl)oxy)naphthalen-1-yl)urea] | > 1620 | 33.0 | −ve (−ve and +ve indicate the value is below and above respectively, the no significant effect threshold defined as 30% inhibition at 1 μg/mL at the time point indicated) | −ve (−ve and +ve indicate the value is below and above respectively, the no significant effect threshold defined as 30% inhibition at 1 μg/mL at the time point indicated) | 189 | 21 | > 1620 |  | 
9 | COc1ccc(-n2nc(C(C)(C)C)cc2NC(=O)Nc2ccc(Oc3ccnc(Nc4ccc(O)cc4)n3)c3ccccc23)cc1 [Example 33, 1-(3-(tert-butyl)-1-(4-methoxyphenyl)-1H-pyrazol-5-yl)-3-(4-((2-((4-hydroxyphenyl)amino)pyrimidin-4-yl)oxy)naphthalen-1-yl)urea] | 264 | 67.2 | −ve (−ve and +ve indicate the value is below and above respectively, the no significant effect threshold defined as 30% inhibition at 1 μg/mL at the time point indicated) | −ve (−ve and +ve indicate the value is below and above respectively, the no significant effect threshold defined as 30% inhibition at 1 μg/mL at the time point indicated) | 60 | 2.6 | 2380 |  | 
